Structures are written as SMILES.

The subject of series [1] is Rattus norvegicus. Kind of series: Ulcerogenic activity against fasted albino Rattus norvegicus (rat) assessed as ulcer index at 100 mg/kg, po administered QD for 3 days measured on day 4. The class given is toxicity, organism-based. Also noted: dose 100 mg/kg, route oral. The settings on record: in vivo, 72 h.
Series [2] is filed under the species Ovis aries. The experiment in a line: Selectivity ratio of IC50 for Ovis aries (sheep) COX2 to IC50 for ovine COX1.
The test system of series [3] is Rattus norvegicus. Kind of series: Ulcerogenic activity against fasted albino Rattus norvegicus (rat) assessed as ulcer index at 50 mg/kg, po administered QD for 3 days measured on day 4. The class given is toxicity, organism-based. Also noted: dose 50 mg/kg, route oral. The following applies: in vivo, 72 h.
In series [4] the test system is Rattus norvegicus. The experiment in a line: Anti-inflammatory activity in albino Rattus norvegicus (rat) assessed as carrageenan-induced paw edema volume at 20 mg/kg, po administered 1 hr prior to carrageenan-challenge measured at 1 hr (reference value: 3.75 +/- 0.01 ml). Type of series: functional. For orientation: The carrageenan paw model is a standard test of acute inflammation.

The subject of series [5] is Rattus norvegicus. Kind of series: Anti-inflammatory activity in albino Rattus norvegicus (rat) assessed as inhibition of carrageenan-induced paw edema at 20 mg/kg, po administered 1 hr prior to carrageenan-challenge measured at 3 hr relative to control. Type of series: functional.
The subject of series [6] is Rattus norvegicus. The experiment in a line: Anti-inflammatory activity in albino Rattus norvegicus (rat) assessed as carrageenan-induced paw edema volume at 20 mg/kg, po administered 1 hr prior to carrageenan-challenge measured at 0.5 hr (reference value: 2.5 +/- 0.02 ml). The class given is functional.
The subject of series [7] is Rattus norvegicus. The experiment in a line: Anti-inflammatory activity in albino Rattus norvegicus (rat) assessed as carrageenan-induced paw edema volume at 20 mg/kg, po administered 1 hr prior to carrageenan-challenge measured at 2 hr (reference value: 4.25 +/- 0.07 ml). Type of series: functional.

Take `COc1ccc(-c2nn(-c3ccccc3)cc2-c2nn[nH]n2)cc1`: the UI in series [1] was 14.22.

As to `Clc1ccc(-c2nn(-c3ccccc3)cc2-c2nn[nH]n2)cc1`, the UI in series [1] came out at 13.9.

As to `Cc1ccc(-c2cc(C(F)(F)F)nn2-c2ccc(S(N)(=O)=O)cc2)cc1` [CELECOXIB], in series [2], the Ratio IC50 worked out at 0.02. For the same compound, the UI in series [3] is given as 12.51.

For the compound `O=C([O-])Cc1ccccc1Nc1c(Cl)cccc1Cl.[Na+]` [DICLOFENAC SODIUM], the Activity in series [4] was 1.15 mL; in series [6] it was 1.67 mL; in series [7], 0.25 mL. In addition, in series [5], the inhibition in vivo (as a rule, the relative decrease from the control value, in per cent) at 20 mg/kg stood at 88%. The UI in series [3] turned out to be 17.02.
